For data set [1], the system named is T47D cells constitutively expressing MnSOD^K68Q. Put plainly: Clonogenic cell survival in T47D-MnSOD^K68Q cells with hydroxy-Tam. It is filed as cell-based, human. To be noted: 1 µM hydroxy-Tam; compared to cells expressing MnSOD^K68WT or MnSOD^K68R.
Data set [2] has as its system MCF7 cells expressing shSIRT3. Put plainly: Clonogenic cell survival in MCF7-shSIRT3 cells with hydroxy-Tam. In kind it is cell-based, human. To be noted: 1 µM hydroxy-Tam for 120 h. As to the method: All experiments were done in triplicate. Error bars represent ± 1 SEM. **p < 0.01, and ***p < 0.001. Three-armed groups were analyzed via a one-way ANOVA statistical analysis with Tukey’s post-analysis, and two-armed groups were analyzed by a t-test.
(§1) Clonogenic cell survival assay. For the clonogenic survival analysis, exponentially growing cells were replated using appropriate dilutions, and clonogenic survival was evaluated after 14 days in regular growth medium. Cells were stained with crystal violet, and colonies of >50 cells were counted and utilized to calculate clonogenic survival^46.

In data set [3] the test system is T47D cells expressing shSIRT3. The data set can be described thus: Clonogenic cell survival in T47D-shSIRT3 cells with hydroxy-Tam. In kind it is cell-based, human. To be noted: 1 µM 4-hydroxy-Tam for 24 h. From the text: FIGS. 14a-14g are images and plots that illustrate that loss of SIRT3-induced MnSOD—K68 deacetylation leads to hydroxy-Tam resistance, and that such resistance is associated with increased lysine acetylation in human breast cancer cells, while mimicking deacetylation of MnSOD—K68 or pharmacologically mimicking the activity of deacetylated lysine 68 MnSOD with a manganese pentaazamacrocyclic dismutase mimetic has opposing effects. With respect to FIG. 14a, T47D-MnSOD^WT, T47D-MnSOD^K68R, and T47D-MnSOD^K68D permanent cell lines were selected for hydroxy-Tam resistance in 1 µM for 3 months, and clonogenic cell survival experiments were completed. […] With respect to FIG. 14c, T47D and T47D-HTR cells, with and without exposure to 1 µM 4-hydroxy-Tam for 24 h (HT), were measured for hydroxy-Tam response by clonogenic survival experiments. […] The cell lysates were analyzed by immunoblotting with anti-MnSOD-K122-Ac (validated as a SIRT3 deacetylation target in Tao et al., 2010, Cancer Cell), anti-MnSOD, anti-OSCP-K139-Ac (validated as a SIRT3 deacetylation target in Tao et al., 2010, Cancer Cell), anti-OSCP, anti-IDH2K413-Ac (validated as a SIRT3 deacetylation target in Someya et al., 2010, Cancer Cell), anti-IDH2, and anti-actin. […]
Clonogenic cell survival assay. […] Cells were stained with crystal violet, and colonies of >50 cells were counted and utilized to calculate clonogenic survival^46.

A further data set deals with MCF7-MnSOD^K68Q cells. The data set can be described thus: Clonogenic cell survival in MCF7-MnSOD^K68Q cells. In kind it is cell-based, human. As to the method: FIGS. 25a-25b show clonogenic cell survival studies in MCF7-MnSOD^K68Q cells exposed to either: Fulv at 100 nM (in FIG. 25a); or Palb at 0.5 µM (in FIG. 25b) using standard methods. […] Error bars are ± 1 SEM. Experiments in triplicate. *** p < 0.001.
as §1

The subject of data set [4] is T47D cells overexpressing MnSOD^K68Q. Put plainly: MTT cell viability, T47D cells overexpressing MnSOD^K68Q. In kind it is cell-based, human. To be noted: 48 hours. As to the method: (§2) In FIGS. 28a-28b, cell lysates of 250 nM, 500 nM, 1 µM cisplatin-resistant and 500pM, 1 nM and 2 nM doxorubicin-resistant MCF7 cells (cultured in drug-containing media for 3 months) were collected and immunoblotted for MnSOD—K68—Ac, MnSOD, actin and tubulin. In FIGS. 28d-28e, cell lysates of 2.5 µM, 5 µM, 10 µM cisplatin-resistant and 5 nM, 10 nM and 20 nM doxorubicin-resistant T47D cells (cultured in drug-containing media for 3 months) were collected and immunoblotted for MnSOD—K68—Ac, MnSOD, actin and tubulin. In FIGS. 28c and 28f, 10,000 MCF7 or T47D cells overexpressed with empty vector, MnSOD^WT, MnSOD^K68R or MnSOD^K68Q were plated in 96 well plate and treated with cisplatin (1 µM for MCF7 and 10 µM for T47D) or doxorubicin (2 nM for MCF7 and 20 nM for T47D) the next day. After 48 hours, MTT assay is conducted to determine the cell viability after chemotherapy drug treatment.
(§3) Cell proliferation was measured using MTT proliferation assay kit (ab211091). 10,000 exponentially growing cells were plated in regular growth medium per well into 96-well plates in triplicate. Cells were treated with specified drugs after overnight and incubated for 48 hours. […] The absorbance was read at OD=590 nm and used to evaluate cell proliferation.

For data set [5], the system named is MCF7 cells overexpressing MnSOD^K68Q. The data set can be described thus: MTT cell viability, MCF7 cells overexpressing MnSOD^K68Q. In kind it is cell-based, human. To be noted: 48 hours. As to the method:
as §2, §3

A further data set has as its system LNCaP-MnSOD^K68Q cells. The data set can be described thus: Clonogenic cell survival in LNCaP-MnSOD^K68Q cells. It is filed as cell-based. To be noted: 10 µM of ENZ for 72 hr. The method, then:
In FIG. 20a, clonogenic cell survival experiments were done in LNCaP-ENZR cells infected with lenti-MnSOD^K68R or lenti-MnSOD^K68Q, in the presence of ENZ (10 µM). In FIG. 20b, clonogenic survival assays were done in LNCaP cells infected with lenti-MnSOD^WT, lenti-MnSOD^K68R, and lenti-MnSOD^K68Q, and selected with neomycin, and placed in 10 µM of ENZ for 72 hr. Error bars ± 1 SEM. Experiments were done in triplicate. **p < 0.01.
FIGS. 21a-21b are a chart and graph showing that pharmacologically mimicking the activity of deacetylated lysine 68 MnSOD with a manganese pentaazamacrocyclic dismutase mimetic both inhibited the growth of LNCaP-ENZR tumors and reversed the enzalutamide resistance in LNCaP-ENZR / LNCaP—MnSOD^K68Q cells and tumors. In FIG. 21a, clonogenic cell survival experiments were performed in LNCaP-ENZR (left two bars) and LNCaP—MnSOD^K68Q (right two bars) treated with ENZ, with or without GC4419 (20 µM) for 5 days. […] Tumor volumes were measured three times a week for 46 days. For each group n=10. Error bars ± 1 SEM. All experiments done in triplicate. **p < 0.01.

Data set [6] relates to rat model of inflammation. To be noted: cited from earlier work.
For data set [7], the system named is rat model of collagen-induced arthritis. To be noted: cited from earlier work.
Data set [8] relates to hamster model of acute, radiation-induced oral mucositis. To be noted: cited from earlier work.
A further data set deals with adult mice. To be noted: lethal total body irradiation of adult mice; cited from earlier work.
The subject of another data set is colon of rats. To be noted: experimental model of colitis; cited from earlier work.

For the molecule 4-hydroxytamoxifen [hydroxy-Tam], the “cytotoxicity of hydroxy-Tam (clonogenic survival)” value is on record as “significant resistance to the cytotoxicity of hydroxy-Tam” in data set [1] and “significant resistance to the cytotoxicity of hydroxy-Tam” in the data set on MCF7-MnSOD^K68Q cells (1 µM hydroxy-Tam for 5 days, compared to cells expressing MnSOD^K68WT or MnSOD^K68R). For the same molecule, the “hydroxy-Tam cytotoxicity (clonogenic survival)” value in data set [2] and in data set [3] was “resistance to hydroxy-Tam cytotoxicity” in each case.

Regarding `[NH2][Pt]([NH2])([Cl])[Cl]` [CDDP, cisplatin], the “cell viability after drug treatment (MTT)” value in [4] (CDDP 10 µM) and in data set [5] (CDDP 1 µM) was “higher resistance” in each case.

`COc1cccc2c1C(=O)c1c(O)c3c(c(O)c1C2=O)C[C@@](O)(C(=O)CO)C[C@@H]3O[C@H]1C[C@H](N)[C@H](O)[C@H](C)O1` [DXR, doxorubicin]: the “cell viability after drug treatment (MTT)” value in [4] (DXR 20 nM) and in data set [5] (DXR 2 nM) was “higher resistance” each time.

Take `CNC(=O)c1ccc(N2C(=S)N(c3ccc(C#N)c(C(F)(F)F)c3)C(=O)C2(C)C)cc1F` [ENZ, enzalutamide, reference compound]: the “response to ENZ (clonogenic survival)” value in the data set on LNCaP-MnSOD^K68Q cells was “ENZR phenotype”.

Take `C[C@]12CC[C@@H]3c4ccc(O)cc4C[C@@H](CCCCCCCCC[S+]([O-])CCCC(F)(F)C(F)(F)F)[C@H]3[C@@H]1CC[C@@H]2O` (stereo partly drawn) [Fulv, fulvestrant]: in the data set on MCF7-MnSOD^K68Q cells (Fulv at 100 nM, compared to MCF7 cells expressing MnSOD^WT), the “clonogenic tumor cell survival” value was “exhibited resistance”.

Take `[Cl-].[Cl-].[Mn+2].c1cc2nc(c1)CN[C@@H]1CCCC[C@H]1NCCN[C@@H]1CCCC[C@H]1NC2` [GC4403]: the inflammation entry in data set [6] is on record as “inhibit inflammation”. Besides, the joint disease result in data set [7] is recorded as “prevent joint disease”. Further, the radiation damage result (in data set [8]; with adult mice) was “attenuate the radiation damage” throughout. In the data set on colon of rats, the “injury to the colon” value is “very significantly reduce the injury to the colon”.

(Values after patent publication US20230158042A1, “COMBINATION CANCER THERAPY WITH PENTAAZA MACROCYCLIC RING COMPLEX AND HORMONE THERAPY AGENT” (Galera Labs, LLC, priority 2020, published 2023).)
